Test results published in patent US20060069132A1, “Azolecarboxamide herbicides” (priority 2004, published 2006).

Legend:
Experiment in all cases: Test E pre-/postemergence herbicide test
large crabgrass = assay type: in vivo, Digitaria sanguinalis
From the text: (§1) Seeds of plant species selected from bipinnate beggarticks (Bidens bipinnata L.), hairy beggarticks (Bidens radiata Thuill.), bermudagrass (Cynodon dactylon (L.) Pers.), Surinam grass (Urochloa decumbens (Staph) R. D. Webster, previously named Brachiaria decumbens Stapf), large crabgrass (Digitaria sanguinalis (L.) Scop.), green foxtail (Setaria viridis (L.) P. Beauv.), goosegrass (Eleusine indica (L.) Gaertn.), johnsongrass (Sorghum halepense (L.) Pers.), kochia (Kochia scoparia (L.) Schrad.), pitted morningglory (Ipomoea lacunosa L.), purple nutsedge (Cyperus rotundus L.), common ragweed (Ambrosia elatior L.), mustard (Brassica nigra (L.) W. D. J. Koch), guineagrass (Panicum maximum Jacq.), dallisgrass (Paspalum dilatatum Poir.), barnyardgrass (Echinochloa crus-galli (L). P. Beauv.), southern sandbur (Cenchrus echinatus L.), common sowthistle (Sonchus oleraceous L.), prickly sida (Sida spinosa L.), Italian ryegrass (Lolium multiflorum Lam.), common purslane (Portulaca oleracea L.), broadleaf signalgrass (Brachiaria platyphylla (Griseb.) Nash), common groundsel (Senecio vulgaris L.), common chickweed (Stellaria media (L.) Vill/Cyr.), tropical spiderwort (Commelina benghalensis L.), annual bluegrass (Poa annua L.), downy bromegrass (Bromus tectorum L.), itchgrass (Rottboellia cochinchinensis (L.) L.f.), quackgrass (Elytrigia repens (L.) Nevski), Canada horseweed (Erigeron Canadensis L.), field bindweed (Convolvulus arvensis L.), spotted spurge (Euphorbia maculata L.), common mallow (Malva sylvestris (=s silvestris) L.), and Russian thistle (Salsola kali L. ssp. Ruthenica (Iljin) Soo) were planted and treated preemergence with test chemicals formulated in a non-phytotoxic solvent mixture which included a surfactant.
(§2) At the same time, plants selected from these weed species were treated with postemergence applications of some of the test chemicals formulated in the same manner. Plants ranged in height from 2 to 18 cm (1- to 4-leaf stage) for postemergence treatments. Treated plants and controls were maintained in a greenhouse for 12 to 14 days, after which time all species were compared to controls and visually evaluated. Plant response ratings, summarized in Table E, are based on a scale of 0 to 100 where 0 is no effect and 100 is complete control. A dash (-) response means no test result.

green foxtail = assay type: in vivo, Setaria viridis
From the text: as §1, §2

mustard = assay type: in vivo, Brassica nigra
From the text: as §1, §2

guineagrass = assay type: in vivo, Panicum maximum
From the text: as §1, §2

prickly sida = assay type: in vivo, Sida spinosa
From the text: as §1, §2

Italian ryegrass = assay type: in vivo, Lolium multiflorum
From the text: as §1, §2

tropical spiderwort = assay type: in vivo, Commelina benghalensis
From the text: as §1, §2

itchgrass = assay type: in vivo, Rottboellia cochinchinensis
From the text: as §1, §2

quackgrass = assay type: in vivo, Elytrigia repens
From the text: as §1, §2

[1] = Preemergence, 125 g ai/ha, scale 0 to 100
[2] = Preemergence, 250 g ai/ha, scale 0 (no effect) to 100 (complete control)
[3] = Preemergence, 375 g ai/ha, scale 0 (no effect) to 100 (complete control)
[4] = Preemergence, 500 g ai/ha, scale 0 (no effect) to 100 (complete control)
[5] = Postemergence, 500 g ai/ha, scale 0 to 100
[6] = Postemergence, 250 g ai/ha, scale 0 to 100
[7] = postemergence, 125 g ai/ha, scale 0 to 100
[8] = postemergence, 62 g ai/ha, scale 0 to 100
[9] = Preemergence, 62 g ai/ha, scale 0 to 100

CCc1nn(C(C)(C)C)cc1C(=O)Nc1cc(C(=O)N(C)C)ccn1 [Compound 293]
60: Plant response rating, Ryegrass, Italian (Italian ryegrass; [1]) | Plant response rating, Spiderwort (tropical spiderwort; [1])
80: Plant response rating, Prickly Sida (prickly sida; [2]) | Plant response rating, Spiderwort (tropical spiderwort; [2]) | Plant response rating, Spiderwort (tropical spiderwort; [3]) | Plant response rating, Quackgrass (quackgrass; [2])
70: Plant response rating, Quackgrass (quackgrass; [1])
10: Plant response rating, Itchgrass (itchgrass; [1])
95: Plant response rating, Crabgrass, Large (large crabgrass; [1]) | Plant response rating, Crabgrass, Large (large crabgrass; [2]) | Plant response rating, Foxtail, Green (green foxtail; [2]) | Plant response rating, Foxtail, Green (green foxtail; [3]) | Plant response rating, Black Mustard (mustard; [1]) | Plant response rating, Ryegrass, Italian (Italian ryegrass; [2]) | Plant response rating, Ryegrass, Italian (Italian ryegrass; [3]) | Plant response rating, Quackgrass (quackgrass; [3]) | Plant response rating, Quackgrass (quackgrass; [4])
100: Plant response rating, Crabgrass, Large (large crabgrass; [3]) | Plant response rating, Crabgrass, Large (large crabgrass; [4]) | Plant response rating, Foxtail, Green (green foxtail; [4]) | Plant response rating, Black Mustard (mustard; [2]) | Plant response rating, Black Mustard (mustard; [3]) | Plant response rating, Black Mustard (mustard; [4]) | Plant response rating, Guineagrass (guineagrass; [1]) | Plant response rating, Guineagrass (guineagrass; [2]) | Plant response rating, Guineagrass (guineagrass; [3]) | Plant response rating, Guineagrass (guineagrass; [4]) | Plant response rating, Prickly Sida (prickly sida; [3]) | Plant response rating, Prickly Sida (prickly sida; [4]) | Plant response rating, Ryegrass, Italian (Italian ryegrass; [4]) | Plant response rating, Itchgrass (itchgrass; [3]) | Plant response rating, Itchgrass (itchgrass; [4])
90: Plant response rating, Spiderwort (tropical spiderwort; [4]) | Plant response rating, Itchgrass (itchgrass; [2])
50: Plant response rating, Foxtail, Green (green foxtail; [1])

CCn1nc(C(C)(C)C)cc1C(=O)Nc1cc(C(=S)N(C)C)ccc1F [Compound 294]
100: Plant response rating, Crabgrass, Large (large crabgrass; [3]) | Plant response rating, Crabgrass, Large (large crabgrass; [4]) | Plant response rating, Foxtail, Green (green foxtail; [2]) | Plant response rating, Foxtail, Green (green foxtail; [3]) | Plant response rating, Foxtail, Green (green foxtail; [4]) | Plant response rating, Black Mustard (mustard; [1]) | Plant response rating, Black Mustard (mustard; [2]) | Plant response rating, Black Mustard (mustard; [3]) | Plant response rating, Black Mustard (mustard; [4]) | Plant response rating, Guineagrass (guineagrass; [2]) | Plant response rating, Guineagrass (guineagrass; [3]) | Plant response rating, Guineagrass (guineagrass; [4]) | Plant response rating, Prickly Sida (prickly sida; [5]) | Plant response rating, Prickly Sida (prickly sida; [1]) | Plant response rating, Prickly Sida (prickly sida; [2]) | Plant response rating, Prickly Sida (prickly sida; [3]) | Plant response rating, Prickly Sida (prickly sida; [4]) | Plant response rating, Ryegrass, Italian (Italian ryegrass; [2]) | Plant response rating, Ryegrass, Italian (Italian ryegrass; [3]) | Plant response rating, Ryegrass, Italian (Italian ryegrass; [4]) | Plant response rating, Itchgrass (itchgrass; [4])
40: Plant response rating, Crabgrass, Large (large crabgrass; [8]) | Plant response rating, Foxtail, Green (green foxtail; [8])
95: Plant response rating, Crabgrass, Large (large crabgrass; [2]) | Plant response rating, Black Mustard (mustard; [5]) | Plant response rating, Ryegrass, Italian (Italian ryegrass; [5]) | Plant response rating, Ryegrass, Italian (Italian ryegrass; [6]) | Plant response rating, Spiderwort (tropical spiderwort; [4]) | Plant response rating, Itchgrass (itchgrass; [3]) | Plant response rating, Quackgrass (quackgrass; [3]) | Plant response rating, Quackgrass (quackgrass; [4])
80: Plant response rating, Crabgrass, Large (large crabgrass; [5]) | Plant response rating, Foxtail, Green (green foxtail; [6]) | Plant response rating, Foxtail, Green (green foxtail; [1]) | Plant response rating, Guineagrass (guineagrass; [6]) | Plant response rating, Prickly Sida (prickly sida; [6]) | Plant response rating, Ryegrass, Italian (Italian ryegrass; [1]) | Plant response rating, Ryegrass, Italian (Italian ryegrass; [7]) | Plant response rating, Itchgrass (itchgrass; [5]) | Plant response rating, Quackgrass (quackgrass; [1]) | Plant response rating, Quackgrass (quackgrass; [2]) | Plant response rating, Quackgrass (quackgrass; [7])
30: Plant response rating, Spiderwort (tropical spiderwort; [7])
50: Plant response rating, Guineagrass (guineagrass; [8]) | Plant response rating, Prickly Sida (prickly sida; [8]) | Plant response rating, Itchgrass (itchgrass; [8])
70: Plant response rating, Crabgrass, Large (large crabgrass; [7]) | Plant response rating, Black Mustard (mustard; [8]) | Plant response rating, Guineagrass (guineagrass; [7]) | Plant response rating, Prickly Sida (prickly sida; [7]) | Plant response rating, Ryegrass, Italian (Italian ryegrass; [8]) | Plant response rating, Spiderwort (tropical spiderwort; [6]) | Plant response rating, Itchgrass (itchgrass; [7])
20: Plant response rating, Spiderwort (tropical spiderwort; [8])
85: Plant response rating, Foxtail, Green (green foxtail; [5]) | Plant response rating, Guineagrass (guineagrass; [5]) | Plant response rating, Spiderwort (tropical spiderwort; [2]) | Plant response rating, Quackgrass (quackgrass; [5]) | Plant response rating, Quackgrass (quackgrass; [6])
75: Plant response rating, Crabgrass, Large (large crabgrass; [6]) | Plant response rating, Crabgrass, Large (large crabgrass; [1]) | Plant response rating, Itchgrass (itchgrass; [6]) | Plant response rating, Itchgrass (itchgrass; [2])
90: Plant response rating, Black Mustard (mustard; [6]) | Plant response rating, Black Mustard (mustard; [7]) | Plant response rating, Guineagrass (guineagrass; [1]) | Plant response rating, Spiderwort (tropical spiderwort; [5]) | Plant response rating, Spiderwort (tropical spiderwort; [3])
60: Plant response rating, Foxtail, Green (green foxtail; [7]) | Plant response rating, Quackgrass (quackgrass; [8])

CCn1nc(C2(C)CC2)cc1C(=O)Nc1cc(C(=O)N(C)C)ccc1F [Compound 299]
60: Plant response rating, Guineagrass (guineagrass; [8]) | Plant response rating, Prickly Sida (prickly sida; [8]) | Plant response rating, Ryegrass, Italian (Italian ryegrass; [8]) | Plant response rating, Itchgrass (itchgrass; [9])
75: Plant response rating, Crabgrass, Large (large crabgrass; [8]) | Plant response rating, Guineagrass (guineagrass; [6]) | Plant response rating, Itchgrass (itchgrass; [6]) | Plant response rating, Itchgrass (itchgrass; [1]) | Plant response rating, Quackgrass (quackgrass; [7])
90: Plant response rating, Crabgrass, Large (large crabgrass; [9]) | Plant response rating, Spiderwort (tropical spiderwort; [5]) | Plant response rating, Itchgrass (itchgrass; [2])
10: Plant response rating, Spiderwort (tropical spiderwort; [8])
95: Plant response rating, Crabgrass, Large (large crabgrass; [5]) | Plant response rating, Crabgrass, Large (large crabgrass; [6]) | Plant response rating, Black Mustard (mustard; [4]) | Plant response rating, Prickly Sida (prickly sida; [5]) | Plant response rating, Prickly Sida (prickly sida; [6]) | Plant response rating, Prickly Sida (prickly sida; [7]) | Plant response rating, Ryegrass, Italian (Italian ryegrass; [1]) | Plant response rating, Spiderwort (tropical spiderwort; [2]) | Plant response rating, Quackgrass (quackgrass; [2])
50: Plant response rating, Foxtail, Green (green foxtail; [9])
70: Plant response rating, Foxtail, Green (green foxtail; [7]) | Plant response rating, Guineagrass (guineagrass; [9]) | Plant response rating, Guineagrass (guineagrass; [7]) | Plant response rating, Ryegrass, Italian (Italian ryegrass; [9]) | Plant response rating, Itchgrass (itchgrass; [7])
30: Plant response rating, Foxtail, Green (green foxtail; [8]) | Plant response rating, Itchgrass (itchgrass; [8])
85: Plant response rating, Crabgrass, Large (large crabgrass; [7]) | Plant response rating, Foxtail, Green (green foxtail; [6]) | Plant response rating, Guineagrass (guineagrass; [5]) | Plant response rating, Guineagrass (guineagrass; [1]) | Plant response rating, Prickly Sida (prickly sida; [9]) | Plant response rating, Prickly Sida (prickly sida; [1]) | Plant response rating, Ryegrass, Italian (Italian ryegrass; [5]) | Plant response rating, Ryegrass, Italian (Italian ryegrass; [6]) | Plant response rating, Spiderwort (tropical spiderwort; [1]) | Plant response rating, Quackgrass (quackgrass; [6])
20: Plant response rating, Quackgrass (quackgrass; [8])
80: Plant response rating, Ryegrass, Italian (Italian ryegrass; [7]) | Plant response rating, Spiderwort (tropical spiderwort; [6]) | Plant response rating, Spiderwort (tropical spiderwort; [7]) | Plant response rating, Itchgrass (itchgrass; [5]) | Plant response rating, Quackgrass (quackgrass; [9]) | Plant response rating, Quackgrass (quackgrass; [1])
100: Plant response rating, Crabgrass, Large (large crabgrass; [1]) | Plant response rating, Crabgrass, Large (large crabgrass; [2]) | Plant response rating, Crabgrass, Large (large crabgrass; [4]) | Plant response rating, Foxtail, Green (green foxtail; [5]) | Plant response rating, Foxtail, Green (green foxtail; [1]) | Plant response rating, Foxtail, Green (green foxtail; [2]) | Plant response rating, Foxtail, Green (green foxtail; [4]) | Plant response rating, Black Mustard (mustard; [5]) | Plant response rating, Black Mustard (mustard; [6]) | Plant response rating, Black Mustard (mustard; [9]) | Plant response rating, Black Mustard (mustard; [1]) | Plant response rating, Black Mustard (mustard; [2]) | Plant response rating, Black Mustard (mustard; [7]) | Plant response rating, Black Mustard (mustard; [8]) | Plant response rating, Guineagrass (guineagrass; [2]) | Plant response rating, Guineagrass (guineagrass; [4]) | Plant response rating, Prickly Sida (prickly sida; [2]) | Plant response rating, Prickly Sida (prickly sida; [4]) | Plant response rating, Ryegrass, Italian (Italian ryegrass; [2]) | Plant response rating, Ryegrass, Italian (Italian ryegrass; [4]) | Plant response rating, Spiderwort (tropical spiderwort; [4]) | Plant response rating, Itchgrass (itchgrass; [4]) | Plant response rating, Quackgrass (quackgrass; [5]) | Plant response rating, Quackgrass (quackgrass; [4])
